According to patent US8044213B2, “Thiazolyl-benzimidazoles” (Hoffmann-La Roche Inc., priority 2008, dated 2011):

Legend:
[1] = biological target: T1, GST-Plk1 (Homo sapiens, UniProt P53350); assay: Biochemical Characterization Assay A (HTRF, phosphorylation of GST-p53); conditions: full-length GST-Plk1, GST-p53 substrate, HTRF signal
T1 construct: Full-length, active GST-Plk1 was purified from Sf9 insect cells; made in house; host or cells: Sf9 insect cells
Method: Full-length, active GST-Plk1 was purified from Sf9 insect cells, and full-length GST-p53 was purified in E. coli. Anti-phospho p53 antibody was purchased from Cell Signaling Technology. Europium-conjugated anti-rabbit antibody was purchased from PerkinElmer Life and Analytical Sciences. APC-conjugated anti-GST antibody was purchased from Prozyme.
To two microliters of compound (0.6 nM-4 mM) in DMSO or plain DMSO for control wells, 38 microliters of 20 mM HEPES pH 7, 50 mM NaCl, 10 mM MgCl2, 0.5 mM TCEP, 0.1 mM sodium orthovanadate, 0.1 mg/ml BSA, and 0.05% Triton X-100 (Kinase Assay Buffer) were added. Eight microliters of the compound solution were added to a 384-well black microtiter plate, followed by six microliters of GST-p53 (17 ug/ml) and ATP (333 uM) in Kinase Assay Buffer. Six microliters of GST-Plk1 (3 ug/ml) in Kinase Assay Buffer were then added and the solution incubated at 37° C. for 35 minutes. Six microliters of solution containing 43 mM EDTA to stop the reaction and a 1:600 dilution of anti-phospho-p53 antibody in 20 mM HEPES pH 7, 50 mM NaCl, and 0.5 mg/ml BSA (Antibody Binding Buffer) were added and the solution incubated at 37° C. for 30 minutes. Six microliters of solution containing 9 nM europium-conjugated anti-rabbit antibody and 120 nM APC-conjugated anti-GST antibody in Antibody Binding Buffer were then added and the mixture incubated at room temperature for 1.5 hours. The HTRF signal was read on the Envision reader (PerkinElmer Life and Analytical Sciences).
(§1) The IC50 values for each compound were generated using an Excel template. The % conversion readings of Total and Blank were used as 0% and 100% inhibition. The percent inhibition values of reactions in the presence of compounds were calculated, and plotted against compound concentrations. All data were fitted into a Dose Response One Site model (4 parameter logistic model) as the following: (A+4B−A)/(1+((x/C)^13)))), with A and B as the bottom and top of the curve (highest and lowest inhibition), respectively, and C as IC50 and D as Hill Coefficient of the compound.

[2] = biological target: T2, PLK1 (Homo sapiens, UniProt P53350); assay: Biochemical Characterization Assay B (peptide substrate, LABCHIP EZ Reader II); conditions: PLK1, peptide RRRAGALMDASFEEQ-CONH2, % conversion on LABCHIP EZ Reader II
T2 construct: Full-length, active GST-Plk1 was purified from Sf9 insect cells; GST (N); made in house; host or cells: Sf9 insect cells
Method: Compounds were serially diluted to 6400, 2133, 711, 237, 79, 26, 8.78, 2.93, 0.98 and 0.33 μM in 100% DMSO. Diluted compound was further diluted 20 fold with Kinase Assay Buffer (KAB). Peptide RRRAGALMDASFEEQ-CONH2 (MW 2090) was diluted to 1.2 μM with KAB and ATP was added to 400 μM. PLK1 stock, prepared as described above, was diluted to 3 μg protein/mL with KAB right before it was added to MATRIX 384-Well Polypropylene Black Plates to start the reaction. 20 μL of KAB diluted compounds (or 5% DMSO in KAB for Total and Blank), 20 μL of KAB diluted peptide with ATP and 40 μL of KAB diluted PLK1 solution (KAB without PLK 1 for Blanks) were transferred to each well of the polypropylene plates. The reaction mixtures were incubated at room temperature for 40 minutes. Reactions were stopped by addition of 10 uL Reaction Stopping Buffer (RSB) to each well. Plates were then read on LABCHIP EZ Reader II from Caliper Life Science.
as §1

T1 sequence (P53350 whole entry): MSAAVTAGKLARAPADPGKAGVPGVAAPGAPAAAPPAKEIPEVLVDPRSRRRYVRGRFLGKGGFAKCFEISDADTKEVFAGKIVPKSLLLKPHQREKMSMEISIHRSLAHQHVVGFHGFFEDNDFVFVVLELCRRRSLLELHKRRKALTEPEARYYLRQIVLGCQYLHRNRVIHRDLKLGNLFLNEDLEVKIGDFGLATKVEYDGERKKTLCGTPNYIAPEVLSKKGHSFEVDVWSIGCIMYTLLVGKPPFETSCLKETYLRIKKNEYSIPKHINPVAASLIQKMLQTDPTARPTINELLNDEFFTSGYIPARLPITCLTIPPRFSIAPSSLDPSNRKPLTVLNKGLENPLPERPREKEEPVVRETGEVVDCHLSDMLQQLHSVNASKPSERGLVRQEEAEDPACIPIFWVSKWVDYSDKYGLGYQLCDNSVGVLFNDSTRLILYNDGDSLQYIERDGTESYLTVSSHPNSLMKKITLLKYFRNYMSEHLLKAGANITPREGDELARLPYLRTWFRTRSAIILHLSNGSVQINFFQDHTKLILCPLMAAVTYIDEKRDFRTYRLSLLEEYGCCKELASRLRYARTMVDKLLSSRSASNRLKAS
T2 sequence (P53350 whole entry): as above

| SMILES | IC50 [1] [nM] | IC50 [2] [nM] |
| --- | --- | --- |
| COc1cc2ncn(-c3nc(-c4cccc(Cl)c4)c(C(N)=O)s3)c2cc1OCCCN1CCN(C)CC1 [Example 42, 4-(3-Chloro-phenyl)-2-{5-methoxy-6-[3-(4-methyl-piperazin-1-yl)-propoxy]-benzoimidazol-1-yl}-thiazole-5-carboxylic acid amide] | 19 | 60 |
| CN1CCN(CCc2ccc3ncn(-c4nc(-c5cccc(Cl)c5)c(C(N)=O)s4)c3c2)CC1 [Example 9, 4-(3-Chloro-phenyl)-2-{6-[2-(4-methyl-piperazin-1-yl)-ethyl]-benzoimidazol-1-yl}-thiazole-5-carboxylic acid amide] | 109 | – |
